Activity calls are given as the source filed them.
Assays:
[1] = tested on: HEK293; experiment: inhibition of NOD1-driven NF-kB reporter – cell-based, luminescence, uHTS, primary screen (AID 1578); format: functional; details: Homo sapiens
[2] = tested on: HEK293; experiment: NOD2 signaling inhibitors in MDP-stimulated cells, cell-based, uHTS, luminescence (AID 2001); format: functional; details: Homo sapiens
[3] = HEK-293T cell viability reduction – luminescence, B-cell screen hits, cytotoxicity control for BCR NF-kB inhibitor project, dose response (AID 489021); format: functional, cell-based;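 note: HEK-293T cells carrying an NF-kB luciferase reporter; cells exposed to compound for about 14 hours before viability readout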
[4] = tested on: HEK293; experiment: cells; format: functional, cell-based; details: Homo sapiens
[5] = tested on: INS1; experiment: INS-1E survival protection against cytokine death – cell-based, luminescence, retest, dose response (AID 449756); format: functional; details: Rattus norvegicus;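 note: cell death triggered by IL-1 beta plus TNF-alpha plus IFN-gamma mixture; protective hits raise ATP signal compared with cytokine alone wells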
[6] = tested on: HEK293; experiment: cells; format: functional, cell-based; details: Homo sapiens; remark: listed apart in the source
[7] = molecular target: T1, COUP transcription factor 2 (Homo sapiens, UniProt P24468); experiment: Luminescence-based cell-based high throughput dose response assay to identify inhibitors of COUP-TFII (NR2F2).; format: functional;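 note: HEK293 cells transiently cotransfected with COUP-TFII expression vector and reporter; luciferase reporter luminescence driven by COUP-TFII from the pX2-168 reporter plasmid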
T1 sequence (P24468 whole entry): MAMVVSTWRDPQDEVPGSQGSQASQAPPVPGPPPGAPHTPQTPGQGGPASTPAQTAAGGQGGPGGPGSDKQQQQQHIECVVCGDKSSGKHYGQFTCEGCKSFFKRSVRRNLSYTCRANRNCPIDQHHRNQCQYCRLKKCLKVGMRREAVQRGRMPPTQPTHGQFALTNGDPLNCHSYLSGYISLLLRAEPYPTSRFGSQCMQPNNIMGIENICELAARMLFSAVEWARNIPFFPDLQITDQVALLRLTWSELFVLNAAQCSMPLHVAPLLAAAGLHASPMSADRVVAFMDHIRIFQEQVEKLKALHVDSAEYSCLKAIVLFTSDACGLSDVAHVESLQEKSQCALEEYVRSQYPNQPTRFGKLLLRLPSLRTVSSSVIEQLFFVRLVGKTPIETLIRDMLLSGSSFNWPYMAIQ

[8] = molecular target: T2, CAAX prenyl protease 2 (Homo sapiens, UniProt Q9Y256); experiment: inhibition of Ras-converting CAAX protease Rce1 – biochemical, yeast membranes, quenched-peptide fluorescence, cherry-pick, dose response (AID 588849)
T2 sequence (Q9Y256 whole entry): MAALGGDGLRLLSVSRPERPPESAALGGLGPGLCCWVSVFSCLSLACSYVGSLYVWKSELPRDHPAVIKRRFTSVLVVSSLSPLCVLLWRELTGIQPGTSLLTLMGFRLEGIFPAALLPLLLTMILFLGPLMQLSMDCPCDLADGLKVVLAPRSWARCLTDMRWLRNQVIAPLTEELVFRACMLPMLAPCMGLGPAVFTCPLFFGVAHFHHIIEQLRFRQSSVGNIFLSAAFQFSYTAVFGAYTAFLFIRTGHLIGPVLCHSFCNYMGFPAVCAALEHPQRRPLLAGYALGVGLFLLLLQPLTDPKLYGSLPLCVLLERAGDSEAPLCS

[9] = molecular target: T3, Nucleotide-binding oligomerization domain-containing protein 1 (Homo sapiens, UniProt Q9Y239); experiment: blockers of NOD1 pathway activity – revised, SAR follow-up (AID 2333); format: functional
T3 sequence (Q9Y239 whole entry): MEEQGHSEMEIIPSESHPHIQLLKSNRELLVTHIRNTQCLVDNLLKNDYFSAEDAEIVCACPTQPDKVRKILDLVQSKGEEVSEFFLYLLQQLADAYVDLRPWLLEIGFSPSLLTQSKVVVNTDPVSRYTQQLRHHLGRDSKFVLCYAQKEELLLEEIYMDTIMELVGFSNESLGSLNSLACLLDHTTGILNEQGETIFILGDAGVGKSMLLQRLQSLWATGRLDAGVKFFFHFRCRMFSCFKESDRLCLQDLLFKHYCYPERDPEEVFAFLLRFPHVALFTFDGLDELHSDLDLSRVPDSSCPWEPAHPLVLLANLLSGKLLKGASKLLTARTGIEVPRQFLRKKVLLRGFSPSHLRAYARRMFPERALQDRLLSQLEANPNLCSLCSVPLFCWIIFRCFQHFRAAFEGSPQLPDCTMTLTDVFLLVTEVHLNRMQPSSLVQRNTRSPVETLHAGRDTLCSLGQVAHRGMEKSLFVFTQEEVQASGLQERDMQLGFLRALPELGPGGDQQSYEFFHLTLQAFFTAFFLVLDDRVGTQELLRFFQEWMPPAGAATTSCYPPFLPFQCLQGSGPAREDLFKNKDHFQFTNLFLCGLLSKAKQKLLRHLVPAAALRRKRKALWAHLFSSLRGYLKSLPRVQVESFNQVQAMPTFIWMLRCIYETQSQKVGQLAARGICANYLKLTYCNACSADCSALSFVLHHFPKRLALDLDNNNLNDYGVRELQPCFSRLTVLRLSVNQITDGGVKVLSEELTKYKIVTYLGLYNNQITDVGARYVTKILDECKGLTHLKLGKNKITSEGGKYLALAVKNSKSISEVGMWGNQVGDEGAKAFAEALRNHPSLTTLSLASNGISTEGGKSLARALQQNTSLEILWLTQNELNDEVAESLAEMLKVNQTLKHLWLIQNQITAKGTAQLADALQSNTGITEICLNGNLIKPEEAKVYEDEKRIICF

[10] = molecular target: Tumor necrosis factor (Homo sapiens, UniProt P01375); experiment: analog potency on TNFa NF-kB signaling – cell-based, revised, SAR follow-up (AID 2337); format: functional
Tumor necrosis factor, sequence (P01375 whole entry): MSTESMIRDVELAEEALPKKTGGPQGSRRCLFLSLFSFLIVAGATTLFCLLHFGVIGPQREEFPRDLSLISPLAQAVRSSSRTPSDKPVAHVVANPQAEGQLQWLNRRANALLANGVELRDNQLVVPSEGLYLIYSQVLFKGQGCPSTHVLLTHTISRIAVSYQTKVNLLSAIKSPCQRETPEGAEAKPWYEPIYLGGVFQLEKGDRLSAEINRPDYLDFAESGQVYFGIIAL

[11] = tested on: HEK293; experiment: cells; details: Homo sapiens

## COc1ccc(NS(=O)(=O)c2ccc(-c3coc(C)n3)cc2)cc1OC
[1]
  EC50: 1.1 µM (active)
[2]
  IC50: 6.82 µM (active)
[3]
  IC50: > 80 µM (inactive)
[4]
  IC50: > 20 µM (inactive)
[5]
  AC50: 2.88 µM (active)
[6]
  IC50: 4.75 µM (active)
[7]
  IC50: 5.85 µM (active)

## CCOc1ccc(-c2nc(CCl)cs2)cc1OC
[8]
  AC50: > 100 µM (inactive)

## CCC(=O)N1c2ccc(S(=O)(=O)N3CCN(c4ccc(C(C)=O)cc4)CC3)cc2CC1C (configuration not stated)
[9]
  IC50: 2 µM (active)
[10]
  IC50: 1.63 µM (active)
[11]
  IC50: 14.7 µM (active)

## CS(=O)(=O)Cc1ccc(C(=O)N(CCc2ccccc2)Cc2ccccc2)cc1
[8]
  AC50: 35.8 µM (active)

— ChEMBL document CHEMBL1201862, “PubChem BioAssay data set” (2004)
